# Columns and labels:
# [1] = system: AML samples (mononuclear cells from peripheral blood or bone marrow of AML patients); experiment: Ex vivo treatment of primary AML patient samples; live cells by annexin V / propidium iodide binding assays; format: cell-based, human
# Method: Leukemia samples isolated from peripheral blood or bone marrow of patients with newly diagnosed or relapsed/refractory AML were treated using the test compound as described below.
# Heparinized peripheral blood and bone marrow samples containing more than 1.6×10^7 mononuclear cells were obtained from AML patients with newly diagnosed or relapsed/refractory AML, after informed consent according to the University of Texas MD Anderson Cancer Center (MDA, Houston, Tex., USA) guidelines in accordance with the Declaration of Helsinki. In each sample, the blast counts (blast %) was determined from routine morphological differential counts by clinical laboratory technicians, confirmed by hematopathologists at MDA (usually 500 cells were counted). […]
# Mononuclear cells were purified by density-gradient centrifugation. The cells were cultured in RPMI 1640 medium containing 10% fetal bovine serum and were treated ex vivo for 48 hours with the test compound (0, 25, 50, 100, 250, 500, or 1000 nM), and live cell numbers were determined by apoptosis analysis using annexin V and propidium iodide (PI, purchased from Sigma-Aldrich) binding assays. Annexin V- and PI-negative cells were counted as live cells. Apoptosis was quantified as the proportion of annexin V-positive cells, and specific apoptosis was calculated by the following formula: % specific apoptosis=(test−control)×100/(100−control). […]
# AML = AML patients; cited from earlier work
SMILES,leukemia cells induce apoptosis ([1]; in other samples),"leukemia cells induced apoptosis ([1]; in some of the samples, at a higher concentration)",clinical response (AML)
"CC1(C)CCC2(CC1)N[C@@H](C(=O)N[C@@H]1CC[C@@H](C(N)=O)OC1)[C@H](c1ccnc(Cl)c1F)[C@]21C(=O)Nc2cc(Cl)ccc21.Cc1ccc(S(=O)(=O)O)cc1 [Compound 2, (3′R,4′S,5′R)—N-[(3R,6S)-6-carbamoyltetrahydro-2H-pyran-3-yl]-6″-chloro-4′-(2-chloro-3-fluoropyridin-4-yl)-4,4-dimethyl-2″-oxo-1″,2″-dihydrodispiro[cyclohexane-1,2′-pyrrolidine-3′,3″-indole]-5′-carboxamide mono(4-methylbenzenesulfonate) monohydrate]",less than 20%,more than 80%,–
CCOc1cc(C(C)(C)C)ccc1C1=N[C@@](C)(c2ccc(Cl)cc2)[C@@](C)(c2ccc(Cl)cc2)N1C(=O)N1CCN(CCCS(C)(=O)=O)CC1 [RG7112],–,–,clinical responses including complete remissions

# From patent US20180303812A1, “PHARMACEUTICAL COMPOSITION FOR USE IN TREATING AML AND METHOD OF TREATING AML IN A SUBJECT IN NEED THEREOF” (DAIICHI SANKYO COMPANY, LIMITED, priority 2015, published 2018)
